Test results published in US20250059171A1 (Hoffmann-La Roche Inc., priority 2021, published 2025).

Tests used:
MERS-CoV 3CLpro = MERS-CoV 3CLpro (Middle East respiratory syndrome-related coronavirus, UniProt K9N7C7); experiment: biochemical
SARS-CoV 3CLpro = SARS-CoV 3CLpro (Severe acute respiratory syndrome coronavirus, UniProt P0C6X7); experiment: biochemical
SARS-CoV-2 3CLpro = SARS-CoV-2 3CLpro (Severe acute respiratory syndrome coronavirus 2, UniProt P0DTD1); experiment: biochemical
HCoV-229E 3CLpro = HCoV-229E 3CLpro (Human coronavirus 229E, UniProt P0C6X1); experiment: HCoV-229E 3CLpro inhibition assay (FRET); format: biochemical
Sequence of HCoV-229E 3CLpro (P0C6X1 2966-3267): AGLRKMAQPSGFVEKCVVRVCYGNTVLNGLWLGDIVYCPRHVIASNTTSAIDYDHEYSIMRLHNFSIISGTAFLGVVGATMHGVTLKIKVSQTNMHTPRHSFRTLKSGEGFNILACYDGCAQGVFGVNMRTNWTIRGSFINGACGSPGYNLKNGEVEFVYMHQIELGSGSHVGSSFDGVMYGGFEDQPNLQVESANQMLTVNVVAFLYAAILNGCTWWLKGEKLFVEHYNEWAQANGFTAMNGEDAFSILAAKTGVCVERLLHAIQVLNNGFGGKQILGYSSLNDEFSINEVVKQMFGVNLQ

Sequence of MERS-CoV 3CLpro (K9N7C7 3248-3553): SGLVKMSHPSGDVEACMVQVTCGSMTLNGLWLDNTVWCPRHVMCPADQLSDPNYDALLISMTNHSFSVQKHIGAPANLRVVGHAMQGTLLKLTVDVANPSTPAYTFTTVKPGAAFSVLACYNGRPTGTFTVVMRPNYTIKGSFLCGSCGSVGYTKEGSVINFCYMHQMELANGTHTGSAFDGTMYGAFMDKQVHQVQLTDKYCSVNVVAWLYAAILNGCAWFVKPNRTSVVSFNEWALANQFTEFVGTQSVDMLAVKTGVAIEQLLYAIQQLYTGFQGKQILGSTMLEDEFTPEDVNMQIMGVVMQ

Structure (SMILES)	IC50 (MERS-CoV 3CLpro) [nM]	IC50 (SARS-CoV 3CLpro) [nM]	IC50 (SARS-CoV-2 3CLpro) [nM]	IC50 (HCoV-229E 3CLpro) [nM]
CC(C)C(=O)N[C@H](C(=O)N1C[C@H]2[C@@H]([C@H]1C(=O)NN(C[C@@H]1CCNC1=O)C(=O)[C@H](F)Cl)C2(C)C)C(C)(C)C [Example 13, N-[(1S)-1-[(1R,2S,5S)-2-[[[(2R)-2-chloro-2-fluoro-acetyl]-[[(3S)-2-oxopyrrolidin-3-yl]methyl]amino]carbamoyl]-6,6-dimethyl-3-azabicyclo[3.1.0]hexane-3-carbonyl]-2,2-dimethyl-propyl]-2-methyl-propanamide]	94	14	9	24
CC(C)(C)[C@H](NC(=O)C(F)F)C(=O)N1C[C@H]2[C@@H]([C@H]1C(=O)NN(C[C@@H]1CCNC1=O)C(=O)[C@H](F)Cl)C2(C)C [Example 14, N-[(1S)-1-[(1R,2S,5S)-2-[[[(2R)-2-chloro-2-fluoro-acetyl]-[[(3S)-2-oxopyrrolidin-3-yl]methyl]amino]carbamoyl]-6,6-dimethyl-3-azabicyclo[3.1.0]hexane-3-carbonyl]-2,2-dimethyl-propyl]-2,2-difluoro-acetamide]	121	18	7	36
CC(C)(C)[C@H](NC(=O)C12CC(C1)C2)C(=O)N1C[C@H]2[C@@H]([C@H]1C(=O)NN(C[C@@H]1CCNC1=O)C(=O)[C@H](F)Cl)C2(C)C [Example 15, N-[(1S)-1-[(1R,2S,5S)-2-[[[(2R)-2-chloro-2-fluoro-acetyl]-[[(3S)-2-oxopyrrolidin-3-yl]methyl]amino]carbamoyl]-6,6-dimethyl-3-azabicyclo[3.1.0]hexane-3-carbonyl]-2,2-dimethyl-propyl]bicyclo[1.1.1]pentane-1-carboxamide]	204	26	8	55
CC(C)(C)[C@H](NC(=O)c1cc(C(F)(F)F)on1)C(=O)N1C[C@H]2[C@@H]([C@H]1C(=O)NN(C[C@@H]1CCNC1=O)C(=O)[C@H](F)Cl)C2(C)C [Example 16, N-[(1S)-1-[(1R,2S,5S)-2-[[[(2R)-2-chloro-2-fluoro-acetyl]-[[(3S)-2-oxopyrrolidin-3-yl]methyl]amino]carbamoyl]-6,6-dimethyl-3-azabicyclo[3.1.0]hexane-3-carbonyl]-2,2-dimethyl-propyl]-5-(trifluoromethyl)isoxazole-3-carboxamide]	430	357	20	159
CC(C)(C)[C@H](NC(=O)C(F)(F)F)C(=O)N1C[C@H]2[C@@H]([C@H]1C(=O)NN(C[C@@H]1CCNC1=O)C(=O)[C@@H](F)Cl)C2(C)C [Example 19, N-[(1S)-1-[(1R,2S,5S)-2-[[[(2S)-2-chloro-2-fluoro-acetyl]-[[(3S)-2-oxopyrrolidin-3-yl]methyl]amino]carbamoyl]-6,6-dimethyl-3-azabicyclo[3.1.0]hexane-3-carbonyl]-2,2-dimethyl-propyl]-2,2,2-trifluoro-acetamide]	92	15	13	27
CC1(C)[C@@H]2[C@@H](C(=O)NN(C[C@@H]3CCNC3=O)C(=O)[C@H](F)Cl)N(C(=O)[C@H](Cc3ccccc3)NC(=O)C(F)(F)F)C[C@@H]21 [Example 20, N-[(1S)-1-benzyl-2-[(1R,2S,5S)-2-[[[(2R)-2-chloro-2-fluoro-acetyl]-[[(3S)-2-oxopyrrolidin-3-yl]methyl]amino]carbamoyl]-6,6-dimethyl-3-azabicyclo[3.1.0]hexan-3-yl]-2-oxo-ethyl]-2,2,2-trifluoro-acetamide]	106	16	14	47
CC1(C)[C@@H]2[C@@H](C(=O)NN(C[C@@H]3CCNC3=O)C(=O)[C@H](F)Cl)N(C(=O)[C@@H](NC(=O)C(F)(F)F)c3ccccc3)C[C@@H]21 [Example 21, N-[(1S)-2-[(1R,2S,5S)-2-[[[(2R)-2-chloro-2-fluoro-acetyl]-[[(3S)-2-oxopyrrolidin-3-yl]methyl]amino]carbamoyl]-6,6-dimethyl-3-azabicyclo[3.1.0]hexan-3-yl]-2-oxo-1-phenyl-ethyl]-2,2,2-trifluoro-acetamide]	109	17	25	34
CC(C)(C)[C@H](NC(=O)C(F)(F)C(F)(F)F)C(=O)N1C[C@H]2[C@@H]([C@H]1C(=O)NN(C[C@@H]1CCNC1=O)C(=O)[C@H](F)Cl)C2(C)C [Example 22, N-[(1S)-1-[(1R,2S,5S)-2-[[[(2R)-2-chloro-2-fluoro-acetyl]-[[(3S)-2-oxopyrrolidin-3-yl]methyl]amino]carbamoyl]-6,6-dimethyl-3-azabicyclo[3.1.0]hexane-3-carbonyl]-2,2-dimethyl-propyl]-2,2,3,3,3-pentafluoro-propanamide]	183	31	8	76
CC(C)(C)[C@H](NC(=O)C(F)(F)F)C(=O)N1C[C@H](C(F)(F)F)C[C@H]1C(=O)NN(C[C@@H]1CCNC1=O)C(=O)[C@H](F)Cl [Example 23, N-[(1S)-1-[(2S,4R)-2-[[[(2R)-2-chloro-2-fluoro-acetyl]-[[(3S)-2-oxopyrrolidin-3-yl]methyl]amino]carbamoyl]-4-(trifluoromethyl)pyrrolidine-1-carbonyl]-2,2-dimethyl-propyl]-2,2,2-trifluoro-acetamide]	65	11	9	21
CC1([C@H](NC(=O)C(F)(F)F)C(=O)N2CC3(CC3)C[C@H]2C(=O)NN(C[C@@H]2CCNC2=O)C(=O)[C@H](F)Cl)CC1 [Example 24, N-[(1S)-2-[(6S)-6-[[[(2R)-2-chloro-2-fluoro-acetyl]-[[(3S)-2-oxopyrrolidin-3-yl]methyl]amino]carbamoyl]-5-azaspiro[2.4]heptan-5-yl]-1-(1-methylcyclopropyl)-2-oxo-ethyl]-2,2,2-trifluoro-acetamide]	114	13	18	31
CC(C)C(=O)N[C@H](C(=O)N1CC2(CC2)C[C@H]1C(=O)NN(C[C@@H]1CCNC1=O)C(=O)[C@H](F)Cl)C(C)(C)C [Example 25, N-[(1S)-1-[(6S)-6-[[[(2R)-2-chloro-2-fluoro-acetyl]-[[(3S)-2-oxopyrrolidin-3-yl]methyl]amino]carbamoyl]-5-azaspiro[2.4]heptane-5-carbonyl]-2,2-dimethyl-propyl]-2-methyl-propanamide]	408	27	15	127
CC1(C)C[C@@H](C(=O)NN(C[C@@H]2CCNC2=O)C(=O)[C@H](F)Cl)N(C(=O)[C@@H](NC(=O)C2CC2)C(C)(C)C)C1 [Example 26, N-[(1S)-1-[(2S)-2-[[[(2R)-2-chloro-2-fluoro-acetyl]-[[(3S)-2-oxopyrrolidin-3-yl]methyl]amino]carbamoyl]-4,4-dimethyl-pyrrolidine-1-carbonyl]-2,2-dimethyl-propyl]cyclopropanecarboxamide]	98	21	12	28
C[C@H]1C[C@@H](C(=O)NN(C[C@@H]2CCNC2=O)C(=O)[C@H](F)Cl)N(C(=O)[C@@H](NC(=O)C(F)(F)F)C(C)(C)C)C1 [Example 27, N-[(1S)-1-[(2S,4S)-2-[[[(2R)-2-chloro-2-fluoro-acetyl]-[[(3S)-2-oxopyrrolidin-3-yl]methyl]amino]carbamoyl]-4-methyl-pyrrolidine-1-carbonyl]-2,2-dimethyl-propyl]-2,2,2-trifluoro-acetamide]	136	20	29	29
CC(C)(C)[C@H](NC(=O)C(F)F)C(=O)N1C[C@@H]2CCC[C@@H]2[C@H]1C(=O)NN(C[C@@H]1CCNC1=O)C(=O)[C@H](F)Cl [Example 28, N-[(1S)-1-[(3S,3aS,6aR)-3-[[[(2R)-2-chloro-2-fluoro-acetyl]-[[(3S)-2-oxopyrrolidin-3-yl]methyl]amino]carbamoyl]-3,3a,4,5,6,6a-hexahydro-1H-cyclopenta[c]pyrrole-2-carbonyl]-2,2-dimethyl-propyl]-2,2-difluoro-acetamide]	1020	38	8	396
CC(=O)N[C@H](C(=O)N1C[C@@H]2CCC[C@@H]2[C@H]1C(=O)NN(C[C@@H]1CCNC1=O)C(=O)[C@H](F)Cl)C(C)(C)C [Example 29, N-[(1S)-1-[(3S,3aS,6aR)-3-[[[(2R)-2-chloro-2-fluoro-acetyl]-[[(3S)-2-oxopyrrolidin-3-yl]methyl]amino]carbamoyl]-3,3a,4,5,6,6a-hexahydro-1H-cyclopenta[c]pyrrole-2-carbonyl]-2,2-dimethyl-propyl]acetamide]	68	11	10	28
CC(F)(F)C(=O)N[C@H](C(=O)N1C[C@@H]2CCC[C@@H]2[C@H]1C(=O)NN(C[C@@H]1CCNC1=O)C(=O)[C@H](F)Cl)C(C)(C)C [Example 30, N-[(1S)-1-[(3S,3aS,6aR)-3-[[[(2R)-2-chloro-2-fluoro-acetyl]-[[(3S)-2-oxopyrrolidin-3-yl]methyl]amino]carbamoyl]-3,3a,4,5,6,6a-hexahydro-1H-cyclopenta[c]pyrrole-2-carbonyl]-2,2-dimethyl-propyl]-2,2-difluoro-propanamide]	143	15	8	49
